What all share (experiment): DTP human tumour cell line panel, 48 h
Assay [1] deals with MDA-N.
Assay [2] concerns DLD-1 colon.
For assay [3], the system named is DMS 114 small cell lung.
Assay [4] deals with KM20L2 colon.
For assay [5], the system named is LXFL 529 NSCLC.
Assay [6] concerns M19-MEL melanoma.
The test system of assay [7] is RXF-631 renal.
Assay [8] concerns SNB-78 CNS.
Assay [9] deals with XF 498 CNS.

Consider 24 molecules from PubChem BioAssay (NCI).

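1) Cells in 96-well plates. 2) Compound, 48 h, 5 concentrations. 3) Linear interpolation between surrounding doses. 4) Unreached endpoint = highest concentration. Abbreviation: GI50, concentration required for 50% inhibition of growth. TGI marks complete inhibition of growth.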 Some results are limits rather than exact numbers.

As usually defined, the TGI is the concentration giving total growth inhibition. A high value points to less potent growth arrest. For the molecule `COc1cc(OC)c(OC)cc1/C=C/c1cnnc2ccccc12`, the TGI in assay [1] is > 10 µM.

`N#CC(C#N)=Cc1ccc(CP(=O)(O)O)cc1`: the TGI in assay [2], in [3], in assay [4], in assay [5], in [6] and in [7] was > 100 µM throughout. Besides, the total growth inhibition concentration (TGI) in assay [8] and in [9] was > 100 µM throughout.

Take `Cc1nc(N)nc(N)c1CCCc1ccccc1`: the TGI in assay [2], in assay [3], in [4], in [5], in [6] and in assay [8] was > 100 µM each time. Further, the TGI in [9] is > 100 µM.

Regarding `CC(=O)NNc1nc(C)c(C(=O)/C=C/c2ccc(Cl)cc2)s1`, the TGI in assay [2], in assay [3], in assay [4], in assay [6] and in [8] was > 100 µM in each case.

Turning to `CCOC(=O)C(=CNC(=S)N=Nc1c(O)[nH]c2ccccc12)C(=O)OCC`, in assay [1], the TGI is > 100 µM.

As for `Cc1ccc(NC(=O)/C(Cc2cc(=O)oc3cc(O)ccc23)=N\NC(C)(C)C)cc1C`, the TGI in assay [1] is > 100 µM.

Take `CO/N=C(\C([O-])=N\[n+]1cnn(CC(=O)OC(C)(C)C)c1)c1csc(NC(c2ccccc2)(c2ccccc2)c2ccccc2)n1`: the TGI in [1] was > 10 µM.

In the case of `Cc1c(Cl)cccc1NC(=O)/C=C/c1ccccc1`, the TGI in [1] is > 100 µM.

As to `CCn1c2c(c3ccccc31)[C@@H](c1ccc(Cl)cc1)CC1C(=O)N(c3ccccc3)C(=O)C21` (some centres undefined), the total growth inhibition concentration (TGI) in assay [2], in [3], in [4], in assay [5], in [6] and in [8] was > 100 µM in each case. Also, in assay [9], the TGI was > 100 µM.

As to `CCCCc1c2cnccc2c(CCCC)c2c1[nH]c1ccccc12`, the TGI is > 100 µM in [2]; 18.3 µM in assay [3]; > 100 µM in assay [4]; 25.6 µM in [5]; 24.9 µM in assay [6]; 77.8 µM in [8]. This molecule also had a TGI in [9] of 13.3 µM.

As to `Cc1[nH]c(N)nc(=S)c1CCC(=O)O`, the TGI in assay [1] was > 100 µM.

Take `CCCN(CCC)C(=O)c1nc(N)nc(-c2ccc(OC)cc2)c1-c1ccc(OC)cc1`: the TGI in assay [2], in assay [3], in [4], in assay [5], in [7] and in assay [8] was > 100 µM throughout. Besides, the concentration for total growth inhibition (TGI) in assay [9] was > 100 µM.

`CC(C)c1cccc(O)c(=O)c1`: the TGI was > 100 µM in [2]; 16 µM in assay [3]; > 100 µM in assay [4]; > 100 µM in [5]; > 59.3 µM in [6]; > 100 µM in assay [7]. Besides, the TGI in [8] and in assay [9] was > 100 µM throughout.

For `CC(C(=O)c1ccccc1)C1(O)C(=O)Nc2ccc(Cl)cc21` (centres undefined), the TGI is > 100 µM in assay [2]; > 100 µM in assay [3]; > 100 µM in assay [4]; > 100 µM in assay [5]; 31.6 µM in assay [6]; > 100 µM in assay [8]. Also, the TGI in assay [9] is > 100 µM.

Consider `Cc1ccc(S(=O)(=O)C2=c3nc4ccccc4cc3=C3C(=O)c4ccccc4C(=O)C32)cc1` (centres undefined), for which the TGI in [2], in [3], in [4], in assay [5], in assay [6] and in assay [9] was > 100 µM each time.

As for `NC(=O)c1cccc(OCC(O)CO)c1` (centres undefined), the TGI in [1] was > 100 µM.

For orientation: GI50 means the concentration at which growth is held to half of that of the control. With `Cc1c(N)nc(C(CC(N)=O)NCC(N)C(N)=O)nc1C(=O)NC(C(=O)NC(C)C(O)C(C)C(=O)NC(C(=O)NCCc1nc(-c2nc(C(=O)NCCCNC(C)c3ccccc3)cs2)cs1)C(C)O)C(OC1OC(CO)C(O)C(O)C1OC1OC(CO)C(O)C(OC(N)=O)C1O)c1cnc[nH]1` (centres undefined), the TGI is 50 µM in assay [2]; 8.75 µM in assay [3]; 50 µM in assay [4]; 50 µM in assay [5]; 50 µM in [6]; > 100 µM in assay [1]. The values for the TGI in [8] and in [9] were > 50 µM and 50 µM, respectively. In addition, the GI50 in assay [1] was > 100 µM.

Regarding `CC(=O)NC(CSC1=C2NC(=O)\C=C/C=C/C=C\C(C)C(O)CC(=O)/C(C)=C\CC(O)/C=C/C(C)C(O)C(C)C=C(C)C(=O)c3c(O)c(C)cc(c3C1=O)C2=O)C(=O)O` (centres undefined), in assay [1], the TGI was > 100 µM.

For the molecule `O=C(Nc1ccccc1-c1nn(CN2CCNCC2)c(=S)n(CN2CCNCC2)c1=O)C(F)(F)F`, the TGI came out at 33.3 µM in assay [2]; 34 µM in assay [3]; 32.1 µM in assay [6]; 46.8 µM in assay [7]; 62.4 µM in [8].

Turning to `COc1cc2c(cc1OC)C1Cc3ccc(OC)c(OC)c3C[N+]1([O-])CC2` (centres undefined), the TGI in assay [2], in [4], in assay [5], in assay [8] and in assay [9] was > 100 µM throughout.

Turning to `COC(=O)[C@@H](C)[C@H]1CC[C@@](C)(CCC2=C(C)CC3C=C(C)CCC3C2(C)C)OO1` (some centres undefined), the TGI in [2] came out at 2.54 µM; in assay [3], 4.04 µM; in assay [4], 3.13 µM; in assay [5], 2.2 µM; in [6] it was 3.75 µM; in assay [7], 4.63 µM. This molecule returned a TGI in assay [8] of 4.76 µM.

Regarding `C1CN(P2(N3CC3)=NP(N3CC3)(N3CC3)=NP(N3CC3)(N3CC3)=N2)CCO1` (centres undefined), the TGI in assay [2], in assay [3], in [4], in assay [5], in [6] and in assay [8] was > 100 µM throughout. Moreover, the TGI in [9] is > 100 µM.

As to `CC1(C)C2CCC1C(=O)[C@@]1(C=CC(=O)CC1)C2` (some centres undefined), the TGI in assay [1] is > 100 µM.

Consider `OC12c3ccccc3C1CCCCCCCCCC21OCCO1` (centres undefined), for which the TGI in assay [3], in assay [4], in [5], in assay [6] and in assay [8] was > 100 µM in each case.
